These results are taken from US20250049747A1, “USE OF HYPERPOLARIZING AGENTS ALONE AND IN COMBINATION WITH OTHER THERAPEUTIC AGENTS FOR TREATING CANCERS INCLUDING GLIOBLASTOMA” (Trustees of Tufts College, priority 2021, published 2025).

The conditions of data set [1]: breast cancer xenograft model in immunodeficient mice; cited from earlier work.
For the next data set, the system named is human neuronal cells. Put plainly: Live/Dead assay on human neuronal cells. The data set is classed as cell-based. Particulars: human neurons, 3 day treatment. As to the method:
Human neuronal cells were differentiated from human induced neural stem cells (hiNSCs) (passage 7-10), a generous gift from David Kaplan, as described previously. Briefly, hiNSCs were grown on mouse embryonic fibroblast (MEF) feeder cells until ready to differentiate into neurons. Cells were then seeded on Poly-D-Lysine (A3890401, ThermoFisher) and laminin (L2020, Sigma) coated 96 well plates at a density of 128,000 cells/mL. Cells were differentiated in Neurobasal (12348017, ThermoFisher) media supplemented with 2% B27 (17504044, Gibco), 1% Glutamax, and 1% antibiotic-antimycotic for 7 days with media changes every 2 days. At the end of the 7 days the treatments were added in the differentiation media for 3 days.
Dye Staining Protocols. For the Live/Dead assay, 1 μM Calcein Green AM and 0.5 μM ethidium homodimer-1 (L3224, ThermoFisher) were added to PBS along with 10 μg/mL of Hoechst to make the staining solution. Half the media was removed from the human neuronal cells that had been incubated with treatments for 3 days and replaced with staining solution. […] Cells were then incubated for 15 min at 37° C. and imaged. For resting membrane potential staining, DiBAC4(3) was used. U87 cells were seeded at 10,000 cells per mL on Matrigel coated plates as described above. […] Images were then analyzed using a CellProfiler pipeline. […]

Data set [2] is described as follows: Reported clinical pharmacokinetics and blood-brain barrier penetrance (literature). Conditions: human, in vivo; pantoprazole 240 mg/day, if proportional to the 30 mg/day dose.
The conditions of data set [3]: human, in vivo; cited from earlier work.

Values joined by “and” are separate entries in the source; they are usually repeats but may differ in a detail not shown here. Identical values can stand only once.

Regarding `O=C(Nc1cc(C(F)(F)F)ccc1O)Nc1cc(C(F)(F)F)ccc1O` [NS1643], the “toxicity on the heart or on normal breast epithelial cells” value in data set [1] is recorded as “did not show any overt toxicity”.

Turning to `COc1ccnc(C[S+]([O-])c2nc3ccc(OC(F)F)cc3[nH]2)c1OC` (stereo not shown) [Pantoprazole, pantoprazole], the “toxicity by Live/Dead stain compared to control” value in the data set on human neuronal cells is “slight increase in toxicity that was significant compared to control”. Moreover, the Cmax – broadly, the maximum level reached in the sampled fluid or tissue – in data set [2] was 42000 ng/mL and ~110 µM. The “blood brain barrier penetrance” value in data set [3] is given as 2%.
